This note sets out measurements from patent US20030187035A1, “Substituted hydrazones as inhibitors of cyclooxygenase-2” (priority 2001, published 2003).

For one data set, the system named is DLD-1 cells. Description: Soft agar assay, anchorage-independent colony growth. Type of data set: cell-based. The settings on record: DLD-1 human colorectal carcinoma cells in soft agar, three weeks. As for the experimental part: The Example 2, 3, 4 and 9 compounds were compared to the COX-2 inhibitor celecoxib in inhibiting the growth of DLD-1 cells in soft agar. DLD-1 cells are human colorectal carcinoma cells that overexpress COX-2. DLD-1 cells grow in soft agar and form tumors in nude mice. The soft agar assay was performed as follows. Bottom agar was first prepared as a 3 mL layer of 0.8% noble agar prepared in complete growth medium (DMEM containing 10% FBS and 500 units of penicillin-streptomycin) and placed into 60 mm^2 tissue culture dishes. The tumor cells were trypsinized from normal growth flasks while in exponential growth. The cells were counted by using a hemacytometer and 5.0×10^4 viable cells were mixed with 0.4% noble agar containing growth medium and various concentrations of drugs. Non-treated control plates received DMSO alone. Each drug concentration was run in duplicate. The concentration range was normally between 10 μM to 75 μM. The plates were incubated at 37° C. under 95% humidity for three weeks and stained with a 0.05% (w/v) nitroblue tetrazolium solution. This solution will only stain viable cells so that all growing cell in the form of colonies will appear blue. The plates were photographed using an Olympus stereoscope mounted with a SONY digital camera system.

The next data set concerns HT29. The data set is described as follows: In vitro cytotoxicity assay (trypan exclusion, viable cell count). Type of data set: cell-based. Particulars: HT-29; HT29 human colo-rectal carcinoma, 96 hours. How it is done:
(§1) The human colo-rectal carcinoma cell lines DLD-1, HT29, and HCT 116, and the human prostate carcinoma cell line DU145, were grown exponentially and plated onto 6 well dishes at a cell density of 1.0×10^5 cells per 35 mm well. Various concentration of 4-bromobenzaldehyde-4-sulfamylphenylhydrazone (Ex. 4) or DMSO were added 24 hours later. The number of viable cells were determined at each concentration tested 96 hours later by trypan exclusion using a hemacytometer. The GI50 (concentration of drug that inhibits 50% of tumor cell growth when compared to tumor cells treated with same volume of DMSO) was determined for each cell line.
The same protocol was used to compare the growth inhibitory activity of 4-bromobenzaldehyde-4-sulfamylphenylhydrazone and celecoxib against the human colo-rectal tumor cell line HT29. The data are plotted as the percent of viable cells remaining as compared to DMSO (non-treated) cells.

Another data set deals with DU145. The data set is described as above. The settings on record: DU-145; DU145 human prostate carcinoma, 96 hours. Type of data set: cell-based. As for the experimental part:
as §1

The test system of a further data set is DLD-1. Described as above. Type of data set: cell-based. Particulars: DLD-1 human colo-rectal carcinoma, 96 hours. As for the experimental part:
as §1

A further data set has as its system HCT116. The data set is described as above. Type of data set: cell-based. The settings on record: HCT-116; HCT116 human colo-rectal carcinoma, 96 hours. How it is done: as §1
For another data set, the system named is mice. The data set is described as follows: In vivo toxicity assay, survival after intraperitoneal dosing. Particulars: survival at seven days. As for the experimental part:
The compound of Example 4 was examined for in vivo toxicity in mice. Mice received intraperitoneal doses of compound suspended in DMSO, ranging from 25 to 400 mg/kg. Survival at seven days was determined.

Data set [1] can be described thus: Bioavailability assay, plasma drug concentration after intraperitoneal injection. Type of data set: in vivo. Particulars: mice; for concentration at 120 min: mouse, plasma, ip, 120 minutes post injection. As for the experimental part: The bioavailability of compound of Example 4 was examined as follows. Mice received a single dose (25 or 50 mg/kg) of compound suspended in DMSO via intraperitoneal injection. Plasma drug concentration was measured 120 minutes post injection.

Turning to `NS(=O)(=O)c1ccc(NN=Cc2ccc(F)cc2)cc1` [Example 2, 4-Fluorobenzaldehyde-4-sulfamylphenylhydrazone], in the data set with DLD-1 cells, the “Concentration Required for Complete DLD-1 Colony Growth Inhibition” value stood at 30 µM.
`NS(=O)(=O)c1ccc(NN=Cc2ccc(Cl)cc2)cc1` [Example 3, 4-Chlorobenzaldehyde-4-sulfamylphenylhydrazone]: the “Concentration Required for Complete DLD-1 Colony Growth Inhibition” value in the data set with DLD-1 cells came out at 20 µM.
For the compound `NS(=O)(=O)c1ccc(NN=Cc2ccc(Br)cc2)cc1` [Example 4, 4-Bromobenzaldehyde-4-sulfamylphenylhydrazone], the “Concentration Required for Complete DLD-1 Colony Growth Inhibition” value is less than 20 µM in the data set on DLD-1 cells and 20 µM in the data set on DLD-1 cells (listed as Ex. 4). Besides, the GI50 stood at 8 µM in the data set on HT29, 30 µM with DU145, 30 µM in the data set on DLD-1 and 30 µM with HCT116. Moreover, the “Percent Survival of Mice” value in the data set on mice (25 mg/kg intraperitoneal) is given as 100%; in the data set with mice (50 mg/kg intraperitoneal), 100%; in the data set on mice (100 mg/kg intraperitoneal), 100%; with mice (200 mg/kg intraperitoneal), 100%; with mice (400 mg/kg intraperitoneal), 80%. In the data set on mice (intraperitoneal doses 25 to 400 mg/kg), the “In vivo toxicity in mice (in words)” value is “very low mammalian toxicity”. Further, in data set [1] (single dose 25 or 50 mg/kg intraperitoneal), the “Bioavailability (in words)” value is listed as “high level of bioavailability”. The concentration at 120 min stood at 38 µg/mL in data set [1] (single dose 25 mg/kg intraperitoneal) and 165 µg/mL in data set [1] (single dose 50 mg/kg intraperitoneal).
In the case of `COc1ccc(C=NNc2ccc(S(N)(=O)=O)cc2)cc1` [Example 9, 4-Methoxybenzaldehyde-4-sulfamylphenylhydrazone], the “Concentration Required for Complete DLD-1 Colony Growth Inhibition” value with DLD-1 cells is greater than 75 µM.
In the data set with HT29, `Cc1ccc(-c2cc(C(F)(F)F)nn2-c2ccc(S(N)(=O)=O)cc2)cc1` [celecoxib, reference compound] had a 50% growth inhibitory concentration (GI50) of 25 µM.

As usually defined, the GI50 is the concentration at which growth is held to half of that of the control. Low values mean greater sensitivity of the cells, high ones lower sensitivity of the cells.
